Data taken from patent US20070099929A1, “Substituted thiophenes” (AiCuris GmbH & Co. KG, priority 2003, published 2007).
pEC50: −log10 of the molar value.

Tested on: HCV replicon HuH5-2
Experiment: Cellular HCV-RNA replication assay (replicon system), luciferase reporter, with Alamar Blue cytotoxicity test
Type: cell-based, hepatitis C virus
Conditions: for SI (selectivity index) = CC50/EC50: CC50 from Alamar Blue fluorescence, EC50 from luciferase activity, HuH5-2 cells; for pEC50: Hepatitis C virus, Huh-5-2, HuH5-2 replicon cells, substance concentration with which the luciferase activity decreases by 50% compared with the untreated replicon control, incubation 4-5 days
From the text: 1. Measurement of the Activity of Substances in a Cellular HCV-RNA Replication Assay (“Replicon System”)
Hepatitis C cannot as of yet be replicated reproducibly with high titres in cell culture. The activity of substances is therefore detected in the so-called replicon system. This comprises parts of the HCV genome or complete HCV genomes which are transferred into cell lines (here HuH-7 cells) of human origin. It is possible by insertion of a selection marker to obtain stable cell lines which, under selection pressure, replicate genomic or subgenomic RNA of HCV [Lohmann et al., Science 285, 110-113 (1999); Blight et al., Science 290, 1972-1974 (2000)]. The HuH5-2 cells used here harbour a selectable, luciferase-carrying, cell culture-adapted replicon as described in EP 1 043 399. The cells are cultured in Dulbecco's modified […] medium (DMEM) with 10% fetal calf serum (FCS), 1% Pen/Strep, 1% NEAA, 1% L-glutamine and 250 μg/ml Geneticin (G418). To carry out the assays described below, the cells are initially trypsinized and resuspended with the DMEM medium described above without G418. Depending on the assay, the cells are seeded in 24-well or 384-well plates. Depending on the reading or assay method used, transparent or white assay plates coated for cell culture are used.
The test compounds are made up as 50 mM stock solution in DMSO. To determine the EC50 values, the substances subsequently undergo a serial two-fold dilution in DMEM. The dilutions are transferred as doublets to the cell culture plates. The trypsinized cells which have been resuspended in medium are then added. The final concentration of the test substances in the cell culture wells is for example 300 μM to 0.0001 μM. Interferon-alpha serves as reference substance in concentrations of 60 IU/ml to 1 IU/ml. Antimycin-alpha serves as cytotoxicity control in concentrations of 2 μM to 0.03,M. Untreated cells serve as reference. The plates are then incubated at 37° C. under 5% CO2 for 4-5 days. The various measurements and the quantification of the HCV replicon RNA then take place.
Alamar Blue is a water-soluble redox indicator which is reduced as a function of the metabolic activity of the cells to be investigated. The Alamar Blue test is used as quantitative cytotoxicity assay. For this purpose, the cells are seeded with the appropriate test substances (see above) in white 384-well cell culture plates and incubated correspondingly at 37° C. under 5% CO2 for 4 days. 4 to 6 hours before the actual measurement, 5 μl of Alamar Blue are added per well. The fluorescence is then measured at an […]. If this test is to be followed by chemiluminescence measurement (see below) on the same plate, the dye solution is aspirated off from the cells and the latter are subsequently washed once with PBS. The PBS is likewise aspirated off again from the cells.
A reporter gene is introduced into the HCV replicon HuH5-2, in this case the gene for the luciferase enzyme of Photinus pyralis. After the addition of the luciferase reagent (20 mM Tris/HCl, 20 mM tricine, 2.67 mM MgSO4, 0.1 mM EDTA, 33.3 mM DTT, 0.27 mM coenzyme A, 0.47 mM luciferin, 0.53 mM ATP, pH 7.8) to the cells, the chemiluminescence is measured in a luminometer. Normally, the photons are measured in a period of from 10 sec to 60 sec.
The following data can be determined from the assay plates: • CC50=substance concentration in μM with which the Alamar Blue fluorescence decreases by 50% compared with the untreated control; • EC50=substance concentration with which the luciferase activity decreases by 50% compared with the untreated replicon control; • SI (selectivity index)=CC50/EC50. […]

SMILES: CC(C)N(c1sc(-c2ccccc2)cc1C(=O)O)C(=O)[C@H]1CC[C@H](C)CC1 [Example 1, 2-[Isopropyl-(trans-4-methylcyclohexanecarbonyl)amino]-5-phenylthiophene-3-carboxylic acid]
- SI (selectivity index) = CC50/EC50: >50
- pEC50: 6.00

SMILES: C[C@H]1CC[C@H](C(=O)N(c2sc(-c3ccccc3)cc2C(=O)O)C2CCOCC2)CC1 [Example 42, 2-[[(trans-4-Methylcyclohexyl)carbonyl](tetrahydro-2H-pyran-4-yl)amino]-5-phenylthiophene-3-carboxylic acid]
- SI (selectivity index) = CC50/EC50: >100
- pEC50: 6.30

SMILES: CC(C)N(C(=O)[C@@H]1CC[C@@H](C)C[C@@H]1O)c1sc(-c2ccccc2)cc1C(=O)O (single isomer, unassigned) [Example 54]
- SI (selectivity index) = CC50/EC50: >277
- pEC50: 6.74

SMILES: CC(C)N(c1sc(-c2ccc(F)cc2)cc1C(=O)O)C(=O)[C@H]1CC[C@H](C)CC1 [Example 19, 5-(4-Fluorophenyl)-2-{isopropyl[(trans-4-methylcyclohexyl)carbonyl]amino}thiophene-3-carboxylic acid]
- SI (selectivity index) = CC50/EC50: >100
- pEC50: 6.40

SMILES: COCC(C)N(C(=O)C1CCC(C)CC1)c1sc(-c2ccccc2)cc1C(=O)O (centres unmarked) [Example 49]
- SI (selectivity index) = CC50/EC50: >63
- pEC50: 6.10

SMILES: CC(C)N(c1sc(-c2cccnc2)cc1C(=O)O)C(=O)[C@H]1CC[C@H](C)CC1 [Example 30]
- SI (selectivity index) = CC50/EC50: >38
- pEC50: 5.89

SMILES: CC(C)N(c1sc(C2CCN(S(C)(=O)=O)CC2)cc1C(=O)O)C(=O)[C@H]1CC[C@H](C)CC1 [Example 35, 2-{Isopropyl[(trans-4-methylcyclohexyl)carbonyl]amino}-5-[1-(methylsulfonyl)piperidin-4-yl]thiophene-3-carboxylic acid]
- SI (selectivity index) = CC50/EC50: >18
- pEC50: 5.55
